Legend:
rat [1] = conditions: Carcinogenicity; other; Oral; Feed; dose end: 80 week; group: systemic; systemic / in life observation / body weight / body weight + systemic / in life observation / clinical signs / [other] + systemic / in life …
mouse [2] = conditions: Carcinogenicity; b6c3f1; Oral; Feed; dose end: 80 week; group: systemic; systemic / pathology microscopic / liver / carcinoma
rat [3] = conditions: Chronic toxicity; wistar; Oral; Gavage/Intubation; dose end: 27 week; group: systemic; systemic / clinical chemistry / bile acids / bile acids + systemic / clinical chemistry / cholesterol / cholesterol + systemic / clinical …
mouse [4] = conditions: Combined chronic toxicity/carcinogenicity, cd1, Oral, Gavage/Intubation, dose end: 104 week, group: systemic
rat [5] = conditions: Combined chronic toxicity/carcinogenicity; wistar; Oral; Gavage/Intubation; dose end: 104 week; group: systemic; systemic / in life observation / mortality / mortality + systemic / pathology microscopic / intestine large / [other] + systemic / pathology…
primate [6] = conditions: Subchronic oral toxicity in nonrodent, macaque, Gavage/Intubation, dose end: 13 week
rat [7] = conditions: Sub-acute repeat dose toxicity, wistar, Oral, Gavage/Intubation, dose end: 33 day, group: systemic
primate [8] = conditions: Sub-acute repeat dose toxicity; Oral; Gavage/Intubation; dose end: 15 day; group: systemic; systemic / in life observation / clinical signs / emesis
rat [9] = conditions: Sub-acute repeat dose toxicity, sprague dawley, Oral, Gavage/Intubation, dose end: 14 day, group: systemic
rat [10] = conditions: Sub-acute repeat dose toxicity, sprague dawley, Oral, Gavage/Intubation, dose end: 14 day, group: systemic; remark: listed apart in the source
dog [11] = conditions: Sub-acute repeat dose toxicity, beagle, Oral, Gavage/Intubation, dose end: 10 day, group: systemic
primate [12] = conditions: Sub-acute repeat dose toxicity, Oral, Gavage/Intubation, dose end: 14 day, group: systemic
primate [13] = conditions: Sub-acute repeat dose toxicity; Oral; Gavage/Intubation; dose end: 20 day; group: systemic; systemic / in life observation / clinical signs / emesis
rat [14] = conditions: Prenatal developmental toxicity study, wistar, Oral, Gavage/Intubation, dose end: 20 GD
rat [15] = conditions: Combined chronic toxicity/carcinogenicity, wistar, Oral, Feed, dose end: 24 month, group: systemic
mouse [16] = conditions: Carcinogenicity; cd1; Oral; Feed; dose end: 80 week; group: systemic; systemic / pathology microscopic / liver / hypertrophy + systemic / pathology microscopic / liver / infiltration cellular + systemic / …
dog [17] = conditions: Subchronic oral toxicity in nonrodent, beagle, Feed, dose end: 90 day, group: systemic, systemic / clinical chemistry / alanine aminotransferase (alt/sgpt) / alanine aminotransferase (alt/sgpt) + systemic / clinical chemistry / …
rat [18] = conditions: Multigenerational reproductive toxicity study, sprague dawley, Oral, Feed, dose end: 2 generation
rat [19] = conditions: Subchronic oral toxicity in rodents, other, Feed, dose end: 90 day, group: systemic, systemic / in life observation / body weight / body weight gain + systemic / organ weight / kidney / nos + systemic / organ weight / liver…
dog [20] = conditions: Chronic toxicity; beagle; Oral; Feed; dose end: 107 week; group: systemic; systemic / clinical chemistry / [other] / [other] + systemic / clinical chemistry / alanine aminotransferase (alt/sgpt) / alanine …
rat [21] = conditions: Sub-acute repeat dose toxicity, Oral, Gavage/Intubation, dose end: 30 day, group: systemic
primate [22] = conditions: Sub-acute repeat dose toxicity; Oral; Gavage/Intubation; dose end: 4 day; group: systemic; systemic / in life observation / clinical signs / ataxia + systemic / in life observation / clinical signs / emesis + systemic / in life …
primate [23] = conditions: Sub-acute repeat dose toxicity; Oral; Gavage/Intubation; dose end: 10 day; group: systemic; systemic / clinical chemistry / alanine aminotransferase (alt/sgpt) / alanine aminotransferase (alt/sgpt) + systemic / clinical chemistry / …
primate [24] = conditions: Sub-acute repeat dose toxicity, Oral, Gavage/Intubation, dose end: 30 day, group: systemic
rat [25] = conditions: Sub-acute repeat dose toxicity; Oral; Gavage/Intubation; dose end: 10 day; group: systemic; systemic / hematology / erythrocyte (rbc) count differential / erythrocyte (rbc) + systemic / hematology / hematocrit (hct) / hematocrit (…
[26] = systemic / pathology microscopic / gallbladder / adenoma + systemic / pathology microscopic / gallbladder / hemangioma + systemic / …
[27] = systemic / pathology microscopic / gallbladder / adenoma + systemic / pathology microscopic / gallbladder / hyperplasia + systemic / …
[28] = group: maternal, reproductive / reproductive performance / estrous cycle / abnormal
[29] = group: systemic, systemic / clinical chemistry / gamma glutamyl transferase (ggt) / gamma glutamyl transferase (ggt) + systemic / clinical chemistry / …
[30] = systemic / clinical chemistry / albumin / albumin + systemic / clinical chemistry / chloride / chloride + systemic / clinical chemistry / …
[31] = systemic / clinical chemistry / potassium / potassium + systemic / clinical chemistry / triglycerides / triglycerides + systemic / organ …
[32] = systemic / clinical chemistry / albumin / albumin + systemic / clinical chemistry / globulins / globulins + systemic / clinical chemistry / …
[33] = systemic / in life observation / clinical signs / salivation
[34] = systemic / clinical chemistry / albumin / albumin + systemic / clinical chemistry / cholesterol / cholesterol + systemic / hematology / …
[35] = systemic / in life observation / clinical signs / emesis
[36] = systemic / in life observation / clinical signs / emesis + systemic / in life observation / clinical signs / abnormal feces
[37] = systemic / clinical chemistry / alanine aminotransferase (alt/sgpt) / alanine aminotransferase (alt/sgpt) + systemic / clinical chemistry / …
[38] = systemic / in life observation / clinical signs / emesis + systemic / in life observation / clinical signs / reduced activity
[39] = group: developmental, developmental / developmental malformation / bone / short supernumerary
[40] = group: developmental, developmental / developmental malformation / bone / short supernumerary + systemic / in life observation / body weight / fetal weight
[41] = group: maternal, systemic / in life observation / body weight / body weight gain + systemic / in life observation / food consumption / food consumption
[42] = systemic / in life observation / body weight / body weight gain + systemic / pathology microscopic / brain / vacuolization + systemic / …
[43] = systemic / pathology microscopic / spleen / hemosiderosis + systemic / pathology microscopic / uterus / adenocarcinoma
[44] = group: offspring, systemic / in life observation / body weight / offspring (pup) weight + systemic / in life observation / body weight / offspring (pup) …
[45] = group: parental, systemic / organ weight / kidney / absolute + systemic / organ weight / kidney / relative to body weight + systemic / organ weight / liver…
[46] = systemic / clinical chemistry / cholesterol / cholesterol + systemic / clinical chemistry / cytochrome p450, nos / cytochrome p450, nos + …
[47] = systemic / clinical chemistry / urea nitrogen / urea nitrogen + systemic / hematology / neutrophils / neutrophils
[48] = systemic / clinical chemistry / cytochrome p450, nos / cytochrome p450, nos + systemic / hematology / blood clotting / blood clotting - …

Nc1cc(Cl)cc(C(=O)O)c1Cl [Chloramben]
LEL (rat [1]): 1000 mg/kg/day
LOAEL (rat [1]): > 1000 mg/kg/day
NEL (rat [1]): 500 mg/kg/day
NOAEL (rat [1]): ≥ 1000 mg/kg/day
LEL (mouse [2]): 1500 mg/kg/day
LOAEL (mouse [2]): > 3000 mg/kg/day
NEL (mouse [2]): < 1500 mg/kg/day
NOAEL (mouse [2]): ≥ 3000 mg/kg/day

Cc1oc(-c2ccccc2)nc1CCOc1ccc(C[C@H](Nc2ccccc2C(=O)c2ccccc2)C(=O)O)cc1 [Farglitazar]
LEL (rat [3]): 0.5 mg/kg/day
LOAEL (rat [3]): > 50 mg/kg/day
NEL (rat [3]): < 0.5 mg/kg/day
NOAEL (rat [3]): ≥ 50 mg/kg/day
LOAEL (mouse [4]; [26]): > 50 mg/kg/day
NOAEL (mouse [4]; [26]): ≥ 50 mg/kg/day
LEL (mouse [4]; [27]): 1 mg/kg/day
NEL (mouse [4]; [27]): < 1 mg/kg/day
LEL (rat [5]): 0.5 mg/kg/day
LOAEL (rat [5]): > 20 mg/kg/day
NEL (rat [5]): < 0.5 mg/kg/day
NOAEL (rat [5]): ≥ 20 mg/kg/day
LEL (primate [6]; [28]): 50 mg/kg/day
LOAEL (primate [6]; [28]): > 50 mg/kg/day
NEL (primate [6]; [28]): 5 mg/kg/day
NOAEL (primate [6]; [28]): ≥ 50 mg/kg/day
LEL (primate [6]; [29]): 0.5 mg/kg/day
LOAEL (primate [6]; [29]): > 50 mg/kg/day
NEL (primate [6]; [29]): < 0.5 mg/kg/day
NOAEL (primate [6]; [29]): ≥ 50 mg/kg/day
LOAEL (rat [7]; [30]): > 500 mg/kg/day
NOAEL (rat [7]; [30]): ≥ 500 mg/kg/day
LEL (rat [7]; [31]): 0.5 mg/kg/day
NEL (rat [7]; [31]): < 0.5 mg/kg/day

CC(C)(O)c1ccc(CNC(=O)c2cccnc2Oc2ccc3nonc3c2)cc1
LEL (primate [8]): 5 mg/kg/day
LOAEL (primate [8]): > 50 mg/kg/day
NEL (primate [8]): 1 mg/kg/day
NOAEL (primate [8]): ≥ 50 mg/kg/day
LOAEL (rat [9]; [32]): > 160 mg/kg/day
NOAEL (rat [9]; [32]): ≥ 160 mg/kg/day
LEL (rat [9]; [33]): 5 mg/kg/day
NEL (rat [9]; [33]): < 5 mg/kg/day
LOAEL (rat [10]; [34]): > 125 mg/kg/day
NEL (rat [10]; [34]): 5 mg/kg/day
NOAEL (rat [10]; [34]): ≥ 125 mg/kg/day
LEL (rat [10]; systemic / pathology microscopic / mesentery / inflammation): 25 mg/kg/day
LEL (dog [11]; [35]): 10 mg/kg/day
NEL (dog [11]; [35]): < 10 mg/kg/day
LOAEL (dog [11]; [36]): > 250 mg/kg/day
NOAEL (dog [11]; [36]): ≥ 250 mg/kg/day
LOAEL (primate [12]; [37]): > 1000 mg/kg/day
NOAEL (primate [12]; [37]): ≥ 1000 mg/kg/day
LEL (primate [12]; [38]): 20 mg/kg/day
NEL (primate [12]; [38]): < 20 mg/kg/day
LEL (primate [13]): 20 mg/kg/day
LOAEL (primate [13]): > 300 mg/kg/day
NEL (primate [13]): < 20 mg/kg/day
NOAEL (primate [13]): ≥ 300 mg/kg/day

Nc1c(Cl)cc([N+](=O)[O-])cc1Cl [Dicloran]
LEL (rat [14]; [39]): 50 mg/kg/day
NEL (rat [14]; [39]): < 50 mg/kg/day
LOAEL (rat [14]; [40]): 100 mg/kg/day
NOAEL (rat [14]; [40]): 50 mg/kg/day
LEL (rat [14]; [41]): 50 mg/kg/day
LOAEL (rat [14]; [41]): 50 mg/kg/day
NEL (rat [14]; [41]): < 50 mg/kg/day
NOAEL (rat [14]; [41]): < 50 mg/kg/day
LOAEL (rat [15]; [42]): 71 mg/kg/day
NOAEL (rat [15]; [42]): 11.3 mg/kg/day
LEL (rat [15]; [43]): 3.7 mg/kg/day
NEL (rat [15]; [43]): < 3.7 mg/kg/day
LEL (mouse [16]): 86.5 mg/kg/day
LOAEL (mouse [16]): 86.5 mg/kg/day
NEL (mouse [16]): 24.5 mg/kg/day
NOAEL (mouse [16]): 24.5 mg/kg/day
LEL (dog [17]): 75 mg/kg/day
LOAEL (dog [17]): 75 mg/kg/day
NEL (dog [17]): 2.5 mg/kg/day
NOAEL (dog [17]): 2.5 mg/kg/day
LEL (rat [18]; [44]): 87 mg/kg/day
LOAEL (rat [18]; [44]): 87 mg/kg/day
NEL (rat [18]; [44]): 16.9 mg/kg/day
NOAEL (rat [18]; [44]): 16.9 mg/kg/day
NEL (rat [18]; group: parental, systemic / in life observation / clinical signs / discharge on cageboard): 16.9 mg/kg/day
LEL (rat [18]; [45]): 87 mg/kg/day
LOAEL (rat [18]; [45]): 87 mg/kg/day
NOAEL (rat [18]; [45]): 16.9 mg/kg/day
LEL (rat [19]): 150 mg/kg/day
LOAEL (rat [19]): 150 mg/kg/day
NEL (rat [19]): 5 mg/kg/day
NOAEL (rat [19]): 5 mg/kg/day
LEL (dog [20]): 75 mg/kg/day
LOAEL (dog [20]): 75 mg/kg/day
NEL (dog [20]): 2.5 mg/kg/day
NOAEL (dog [20]): 2.5 mg/kg/day

CC(C)(C)c1nnc2ccc(-c3ocnc3-c3cc(F)c(F)cc3F)cn12
LOAEL (rat [21]; [46]): > 100 mg/kg/day
NOAEL (rat [21]; [46]): ≥ 100 mg/kg/day
LEL (rat [21]; [47]): 3 mg/kg/day
NEL (rat [21]; [47]): < 3 mg/kg/day
LEL (primate [22]): 100 mg/kg/day
LOAEL (primate [22]): > 100 mg/kg/day
NEL (primate [22]): < 100 mg/kg/day
NOAEL (primate [22]): ≥ 100 mg/kg/day
LEL (primate [23]): 10 mg/kg/day
LOAEL (primate [23]): > 100 mg/kg/day
NEL (primate [23]): < 10 mg/kg/day
NOAEL (primate [23]): ≥ 100 mg/kg/day
LOAEL (primate [24]; [48]): > 100 mg/kg/day
NEL (primate [24]; [48]): 3 mg/kg/day
NOAEL (primate [24]; [48]): ≥ 100 mg/kg/day
LEL (primate [24]; systemic / hematology / fibrinogen / fibrinogen): 10 mg/kg/day
LEL (rat [25]): 10 mg/kg/day
LOAEL (rat [25]): > 100 mg/kg/day
NEL (rat [25]): < 10 mg/kg/day
NOAEL (rat [25]): ≥ 100 mg/kg/day

Reference: EPA's ToxRefDB 2
